Test results: ChEMBL document CHEMBL1132739, “Pyrrolo[2,3-d]pyrimidines containing an extended 5-substituent as potent and selective inhibitors of lck I” (Bioorg Med Chem Lett, 2000)
One block for each compound: values may come before it.

What was measured:
[1] = molecular target: T1, Tyrosine-protein kinase Lck (Homo sapiens, UniProt P06239)
Description: Inhibition of p56 Lck tyrosine kinase at 5 uM ATP

[2] = tested on: Jurkat; assay: Inhibition of MLR stimulated IL-2 production in Jurkat cells; format: functional, cell-based; conditions: Homo sapiens
[3] = tested on: Jurkat; assay: Inhibition of anti-CD3 stimulated IL-2 production by Jurkat cells; format: functional, cell-based; conditions: Homo sapiens
[4] = molecular target: T2, Tyrosine-protein kinase ZAP-70 (Homo sapiens, UniProt P43403); assay: Inhibition of Zap 70
T2 sequence (P43403 whole entry): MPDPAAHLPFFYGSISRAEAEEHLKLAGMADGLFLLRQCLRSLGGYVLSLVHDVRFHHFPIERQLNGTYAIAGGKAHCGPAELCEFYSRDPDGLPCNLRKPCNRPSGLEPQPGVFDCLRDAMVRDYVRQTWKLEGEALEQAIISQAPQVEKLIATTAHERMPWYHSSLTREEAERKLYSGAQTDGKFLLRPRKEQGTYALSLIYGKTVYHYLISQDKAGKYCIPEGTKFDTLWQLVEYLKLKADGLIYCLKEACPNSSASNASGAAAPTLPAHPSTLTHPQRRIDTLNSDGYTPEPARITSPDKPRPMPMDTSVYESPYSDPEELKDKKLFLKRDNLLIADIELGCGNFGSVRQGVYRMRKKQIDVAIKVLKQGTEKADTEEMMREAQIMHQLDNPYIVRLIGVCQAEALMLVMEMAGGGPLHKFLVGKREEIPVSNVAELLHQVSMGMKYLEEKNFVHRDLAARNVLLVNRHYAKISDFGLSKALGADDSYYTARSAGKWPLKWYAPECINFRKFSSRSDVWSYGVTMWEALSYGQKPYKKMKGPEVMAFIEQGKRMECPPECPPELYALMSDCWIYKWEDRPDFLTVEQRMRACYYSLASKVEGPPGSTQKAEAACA

[5] = molecular target: Proto-oncogene tyrosine-protein kinase Src (Homo sapiens, UniProt P12931)
Sequence of Proto-oncogene tyrosine-protein kinase Src (P12931 2-536 limits assumed): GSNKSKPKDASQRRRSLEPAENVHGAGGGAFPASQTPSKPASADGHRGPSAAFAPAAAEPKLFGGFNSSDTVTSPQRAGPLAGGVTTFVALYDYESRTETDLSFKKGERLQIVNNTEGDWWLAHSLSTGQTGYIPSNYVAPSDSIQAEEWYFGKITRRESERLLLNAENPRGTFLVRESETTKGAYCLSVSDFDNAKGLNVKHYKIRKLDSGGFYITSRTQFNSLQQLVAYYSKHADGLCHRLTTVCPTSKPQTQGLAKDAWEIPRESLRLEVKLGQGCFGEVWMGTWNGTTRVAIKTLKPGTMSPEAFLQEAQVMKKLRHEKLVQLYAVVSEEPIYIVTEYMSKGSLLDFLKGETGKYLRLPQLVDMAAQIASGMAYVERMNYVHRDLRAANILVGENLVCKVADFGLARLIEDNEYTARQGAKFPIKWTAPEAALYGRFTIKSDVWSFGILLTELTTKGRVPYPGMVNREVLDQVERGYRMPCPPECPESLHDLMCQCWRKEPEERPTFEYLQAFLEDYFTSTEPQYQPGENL
Description: Inhibition of src at 5 mM ATP

[6] = molecular target: T1, Tyrosine-protein kinase Lck; remark: listed apart in the source
Description: Inhibition of p56 Lck tyrosine kinase catalytic domain at 5 uM ATP

[7] = molecular target: Protein kinase C (PKC); assay: Inhibition of PKC; format: protein assay
[8] = tested on: Jurkat; assay: Inhibition of PMA stimulated IL-2 production in Jurkat cells; format: functional, cell-based; conditions: Homo sapiens
[9] = molecular target: T1, Tyrosine-protein kinase Lck; remark: listed apart in the source
Description: Inhibition of p56 Lck tyrosine kinase catalytic domain at 1 mM ATP

[10] = molecular target: Cyclin-dependent kinase 1/cyclin B (Homo sapiens, UniProt P06493); assay: Inhibition of CDC2/CyB; format: protein-complex assay
[11] = molecular target: T1, Tyrosine-protein kinase Lck; remark: listed apart in the source
Description: Inhibition of p56 Lck tyrosine kinase at 1 mM ATP

[12] = molecular target: Vascular endothelial growth factor receptor 2 (Homo sapiens, UniProt P35968)
Sequence of Vascular endothelial growth factor receptor 2 (P35968 whole entry): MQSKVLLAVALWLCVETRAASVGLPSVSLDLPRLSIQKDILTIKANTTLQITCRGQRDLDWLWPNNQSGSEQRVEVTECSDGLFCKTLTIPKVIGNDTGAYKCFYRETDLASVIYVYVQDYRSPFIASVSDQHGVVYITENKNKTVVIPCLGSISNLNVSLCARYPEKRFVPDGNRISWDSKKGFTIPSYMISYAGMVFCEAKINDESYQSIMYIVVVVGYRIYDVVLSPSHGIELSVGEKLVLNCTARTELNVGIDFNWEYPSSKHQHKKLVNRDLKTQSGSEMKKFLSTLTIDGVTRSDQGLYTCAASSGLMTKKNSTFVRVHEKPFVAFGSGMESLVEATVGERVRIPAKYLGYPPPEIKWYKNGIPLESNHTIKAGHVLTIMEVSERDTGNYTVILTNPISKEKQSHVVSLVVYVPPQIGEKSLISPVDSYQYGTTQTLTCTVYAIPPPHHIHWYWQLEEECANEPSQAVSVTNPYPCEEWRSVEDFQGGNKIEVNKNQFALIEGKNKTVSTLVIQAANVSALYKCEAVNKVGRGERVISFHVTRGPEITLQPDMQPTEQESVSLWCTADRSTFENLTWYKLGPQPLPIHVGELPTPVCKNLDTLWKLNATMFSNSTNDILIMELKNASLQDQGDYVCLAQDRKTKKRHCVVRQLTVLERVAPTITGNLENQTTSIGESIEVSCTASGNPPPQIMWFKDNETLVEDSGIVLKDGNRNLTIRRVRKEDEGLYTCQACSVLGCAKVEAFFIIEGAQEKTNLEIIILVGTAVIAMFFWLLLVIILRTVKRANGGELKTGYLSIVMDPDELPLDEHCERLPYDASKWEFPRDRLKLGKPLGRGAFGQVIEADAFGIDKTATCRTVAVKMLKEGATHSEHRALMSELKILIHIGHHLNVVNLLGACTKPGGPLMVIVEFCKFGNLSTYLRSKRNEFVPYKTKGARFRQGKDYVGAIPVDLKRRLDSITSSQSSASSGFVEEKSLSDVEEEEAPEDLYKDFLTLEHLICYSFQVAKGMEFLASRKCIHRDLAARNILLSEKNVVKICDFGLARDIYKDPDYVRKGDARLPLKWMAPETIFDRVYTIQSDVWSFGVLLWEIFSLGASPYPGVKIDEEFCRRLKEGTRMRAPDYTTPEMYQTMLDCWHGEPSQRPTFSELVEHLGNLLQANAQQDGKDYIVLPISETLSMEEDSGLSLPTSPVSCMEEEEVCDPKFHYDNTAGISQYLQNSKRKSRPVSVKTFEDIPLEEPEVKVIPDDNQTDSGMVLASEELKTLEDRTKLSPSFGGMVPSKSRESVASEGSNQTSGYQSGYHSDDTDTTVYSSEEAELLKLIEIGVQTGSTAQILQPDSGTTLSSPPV
Description: Inhibition of Vascular endothelial growth factor receptor 2 at 5 uM ATP

[13] = molecular target: Angiopoietin-1 receptor (Homo sapiens, UniProt Q02763)
Sequence of Angiopoietin-1 receptor (Q02763 whole entry): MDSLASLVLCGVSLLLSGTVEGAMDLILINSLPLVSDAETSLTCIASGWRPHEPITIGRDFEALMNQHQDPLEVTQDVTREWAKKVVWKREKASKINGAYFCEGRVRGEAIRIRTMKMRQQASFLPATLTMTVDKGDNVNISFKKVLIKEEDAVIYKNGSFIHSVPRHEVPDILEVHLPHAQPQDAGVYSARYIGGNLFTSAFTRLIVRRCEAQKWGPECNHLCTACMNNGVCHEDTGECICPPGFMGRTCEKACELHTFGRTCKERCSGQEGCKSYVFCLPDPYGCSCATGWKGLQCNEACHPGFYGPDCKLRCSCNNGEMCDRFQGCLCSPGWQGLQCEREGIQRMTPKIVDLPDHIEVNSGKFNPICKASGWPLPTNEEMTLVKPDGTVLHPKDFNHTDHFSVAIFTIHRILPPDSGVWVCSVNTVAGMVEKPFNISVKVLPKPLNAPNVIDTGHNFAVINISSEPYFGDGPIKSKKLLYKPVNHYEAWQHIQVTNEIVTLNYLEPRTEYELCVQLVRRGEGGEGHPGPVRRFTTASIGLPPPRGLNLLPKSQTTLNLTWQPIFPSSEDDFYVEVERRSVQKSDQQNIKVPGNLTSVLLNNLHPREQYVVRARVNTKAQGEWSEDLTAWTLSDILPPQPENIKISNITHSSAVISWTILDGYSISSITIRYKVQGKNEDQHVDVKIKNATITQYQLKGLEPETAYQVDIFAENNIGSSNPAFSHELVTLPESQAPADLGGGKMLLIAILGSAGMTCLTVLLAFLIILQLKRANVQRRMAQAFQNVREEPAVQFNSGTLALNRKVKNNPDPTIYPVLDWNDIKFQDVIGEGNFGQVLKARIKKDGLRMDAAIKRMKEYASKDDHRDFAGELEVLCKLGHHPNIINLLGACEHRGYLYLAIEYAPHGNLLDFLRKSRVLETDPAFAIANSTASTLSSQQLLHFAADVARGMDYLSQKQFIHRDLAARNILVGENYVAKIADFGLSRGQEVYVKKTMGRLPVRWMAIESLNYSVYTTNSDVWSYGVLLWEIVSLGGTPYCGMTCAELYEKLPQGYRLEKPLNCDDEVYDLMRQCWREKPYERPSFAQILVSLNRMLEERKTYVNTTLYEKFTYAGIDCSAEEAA
Description: Inhibition of tie-2 at 5 uM ATP

T1 sequence (P06239 whole entry): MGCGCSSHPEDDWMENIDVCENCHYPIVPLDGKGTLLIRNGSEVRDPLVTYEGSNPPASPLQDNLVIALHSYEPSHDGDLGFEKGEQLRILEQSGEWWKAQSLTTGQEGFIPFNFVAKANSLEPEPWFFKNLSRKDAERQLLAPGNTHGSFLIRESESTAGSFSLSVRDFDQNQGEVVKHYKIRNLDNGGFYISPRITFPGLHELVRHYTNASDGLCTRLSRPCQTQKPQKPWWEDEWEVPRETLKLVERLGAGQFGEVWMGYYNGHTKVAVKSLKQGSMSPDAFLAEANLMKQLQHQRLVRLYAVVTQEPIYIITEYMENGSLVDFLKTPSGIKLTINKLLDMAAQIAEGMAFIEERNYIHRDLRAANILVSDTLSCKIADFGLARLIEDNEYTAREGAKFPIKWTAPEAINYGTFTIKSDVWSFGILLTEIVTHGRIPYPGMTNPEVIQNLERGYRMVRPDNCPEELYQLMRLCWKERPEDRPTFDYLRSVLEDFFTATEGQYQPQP

SMILES: c1ccc(Oc2ccc(Nc3ncnc4ccccc34)cc2)cc1
IC50 [1]: < 8 nM

SMILES: CC(C)(C)n1cc(-c2ccc(Cl)cc2)c2c(N)ncnc21
IC50 [1]: 220 nM

SMILES: Nc1ncnc2c1c(-c1ccccc1Oc1ccccc1)cn2C1CCCC1
IC50 [1]: 390 nM | IC50 [12]: > 50000 nM

Further lines, results first:

IC50 [2]: 400 nM | IC50 [3]: 1200 nM
SMILES: Cc1ccc(-c2nn(C(C)(C)C)c3ncnc(N)c23)cc1

IC50 [4]: > 50000 nM | IC50 [5]: 70 nM | IC50 [6]: 2 nM | IC50 [7]: > 33000 nM | IC50 [8]: 1500 nM | IC50 [1]: < 1 nM | IC50 [9]: 1070 nM | IC50 [10]: > 50000 nM | IC50 [11]: 16 nM | IC50 [3]: 40 nM | IC50 [12]: 1570 nM
SMILES: Nc1ncnc2c1c(-c1ccc(Oc3ccccc3)cc1)cn2C1CCCC1

IC50 [4]: > 50000 nM | IC50 [5]: 88 nM | IC50 [2]: 28 nM | IC50 [13]: 58.3 nM | IC50 [7]: > 33000 nM | IC50 [8]: 3000 nM | IC50 [10]: > 50000 nM | IC50 [12]: 85 nM
SMILES: Nc1ncnc2c1c(-c1ccc(Oc3ccccc3)cc1)cn2C1CCC(O)C1 (stereo unspecified)

IC50 [5]: > 1000 nM
SMILES: Nc1ncnc2c1c(-c1cccc(Oc3ccccc3)c1)cn2C1CCCC1
